Measured values published in paper PMC3542062, “A phenyl-thiadiazolylidene-amine derivative ejects zinc from retroviral nucleocapsid zinc fingers and inactivates HIV virions” (Retrovirology, 2012).

Legend:
VSV = assay type: cell-based
UG270 subtype D = test: Virucidal assay on clinical isolates, titration on PBMCs; assay type: cell-based, HIV-1; settings: 125 μM, 1 h 37°C, untreated control 25781
HIV-1 virus particles = test: Virion-associated genomic RNA of pre-treated virus (RT-qPCR, Northern blot); settings: compound-cleared HIV-1 virus stock, RT-qPCR or Northern blot
[1] = Cytostatic activity, CEM cell proliferation; assay type: cell-based, human; settings: human, CEM T-lymphocyte cells
VZV = test: Activity against replication of non-retroviruses; assay type: cell-based
[2] = tested on: HIV-1 NL4.3 capture by Raji/DC-SIGN cells; test: HIV capture by Raji/DC-SIGN cells (procedure A), p24 ELISA; settings: HIV pretreated 1 h with compound, then Raji/DC-SIGN cells; p24 of washed cell pellet
Protocol: After 60 minutes of pre-incubation with the Raji/DC-SIGN cells, unabsorbed virus and test compound were carefully removed by repeated washing steps, and the amount of captured virus was determined by measurement of the virus-associated p24 content on the Raji/DC-SIGN cell surface. The α(1-3)/(1-6)-mannose-specific plant lectin HHA was included as a positive control for inhibition of virus capture by Raji/DC-SIGN cells.
Then, 0.5 ml exponentially growing Raji/DC-SIGN cells (10^6 cells) was added, and the suspension further incubated at 37°C for 60 minutes. Subsequently, 39 ml medium was added and the cell suspension was centrifuged at 300 g for 10 minutes. The obtained pellet was washed again with 40 ml medium and after centrifugation, the cell pellet (containing DC-SIGN-bound virus) was analyzed for p24 antigen content by ELISA. […] In the above-described experiments, the mannose-binding entry inhibitor HHA was included as a reference compound.

HIV-2 ROD [3] = test: MT-4/MTT-assay, protection against virus-induced cytopathic effect; assay type: cell-based; settings: Human immunodeficiency virus 2, MT4, 120 h; MT-4 cells, MTT, 5 days after infection
NL4.3/WT = test: GFP-assay in Jurkat A72 (LTR-GFP) cells; assay type: cell-based, HIV-1; settings: Human immunodeficiency virus 1, Jurkat, 72 h, read-out: EC50 NL4.3/WT
HIV-2 ROD [4] = test: Anti-HIV activity in CEM cells (cytopathogenicity); assay type: cell-based; settings: Human immunodeficiency virus 2, CCRF-CEM
CMV = test: Activity against replication of non-retroviruses; assay type: cell-based
BZ163 subtype F = test: Virucidal assay on clinical isolates, titration on PBMCs; assay type: cell-based, HIV-1; settings: 125 μM, 1 h 37°C, untreated control 16242
HIV-2 ROD [5] = test: Virucidal assay: virus pre-incubated with compound, diluted, titrated on MT-4 cells; settings: for CCID50/ml HIV-2 ROD: no drug 5.4 × 10^6
HSV = test: Activity against replication of non-retroviruses; assay type: cell-based
HIV-1 IIIB [6] = test: Anti-HIV activity in CEM cells (cytopathogenicity); assay type: cell-based; settings: Human immunodeficiency virus 1, IIIB, CCRF-CEM
NL4.3/AMD3100R = test: microbe, parasite or virus in culture; assay type: cell-based, HIV-1; settings: Human immunodeficiency virus 1, Jurkat, 72 h, read-out: EC50 NL4.3/AMD3100R
SIV Mac251 = test: MT-4/MTT-assay, protection against virus-induced cytopathic effect; assay type: cell-based; settings: MT-4 cells, MTT, 5 days after infection
NCp7(11-55) = test: Zinc ejection monitored by Trp37 intrinsic fluorescence; assay type: biochemical, HIV-1
Protocol: Ejection of 50% of the zinc is observed in less than 5 minutes (Figure 4C).
As a reference, NCp7(11-55) was treated with 1 mM EDTA, a well known zinc chelator (triangle). […] (B) Time-dependent zinc ejection from NCp7(11-55). […] The data points (stars) corresponded to the fluorescence intensity at the maximum emission wavelength from panel B. Solid line represents a double-exponential fit to the data. (D) Zinc ejection from NCp7(11-55) in the presence of an excess of zinc. Emission spectra of the NCp7(11-55) (1 μM) in the presence of an excess of 100 μM zinc (triangle). […] The emission spectrum of NCp7(11-55) incubated with 1 mM EDTA (triangle) for one hour is given as a reference.
The NC(11-55) peptide was synthesized by solid phase peptide synthesis on a 433A synthesizer (ABI, Foster City, CA), as previously described. The lyophilized peptide was dissolved in water, and its concentration was determined using an extinction coefficient of 5,700 M^–1 x cm^–1 at 280 nm. Next, 2.5 molar equivalents of ZnSO4 were added to the peptide and pH was raised to its final value, by adding buffer. The increase of pH was done only after zinc addition to avoid oxidization of the zinc-free peptide.
Absorption spectra were recorded on a Cary 400 spectrophotometer. Fluorescence spectra were recorded at 20°C on a Fluorolog spectrofluorometer (Horiba, Jobin-Yvon), equipped with a thermostated cell compartment. Excitation wavelength was 295 nm and 520 nm, for NC(11-55) and Rh6G-5^′-cTAR-3^′-Dabcyl, respectively. The spectra were corrected for dilution and buffer fluorescence. The protein spectra were additionally corrected for screening effects due to the zinc ejecting agent, using: […]

BCF-Dioum subtype G = test: Virucidal assay on clinical isolates, titration on PBMCs; assay type: cell-based, HIV-1; settings: 125 μM, 1 h 37°C, untreated control 25781
[7] = tested on: HIV-1 IIIB chronically-infected HuT-78 cells; test: Gag processing in virions from HIV-1 IIIB chronically-infected HuT-78 cells (western blot); assay type: cell-based; settings: HuT-78/IIIB cells treated 43 hours; WDO-217 50, 25 μM; ritonavir 2.7 μM; SRR-SB3 75, 15 μM
Protocol: Recently, it has been shown that this new mechanism involves acetylation of the NCp7 region of Gag, thereby blocking Gag processing.
HIV-1 IIIB virions from persistently infected HuT-78 cells treated with different concentrations of compound were analysed by gel electrophoresis and immunoblotted with antibody against capsid.
Chronically-infected HIV-1 IIIB HuT-78 cells (HuT-78/IIIB) were washed four times with PBS to remove all free virions before treatment and 2 × 10^5 cells were resuspended in 1 ml compound-containing medium for 43 hours at 37°C. Then, virions were prepared from clarified supernatants (10 min at 300 g) by centrifugation at 36670 g for 2 hours at 4°C. Protein from lysed virions were separated by SDS-PAGE on a NuPage® Novex 4-12% Bis-Tris gel (Invitrogen) and transferred on a hydrophobic polyvinylidene difluoride (PVDF) membrane (Amersham Hybond™-P). The blot was blocked overnight at 4°C by 5% dry milk powder in Western blot wash solution (WBWS; PBS + 0.5% Tween 20), washed three times for 5 minutes with WBWS and incubated with a mouse anti-HIV-1 p24 antibody (1:5000) from Abcam. The blot was then washed three times for 5 minutes with WBWS and incubated for 1 h with a goat anti-mouse IgG-HRP secondary antibody (1:2500) from Santa Cruz Biotechnology. […]

HIV-1 IIIB [8] = test: MT-4/MTT-assay, protection against virus-induced cytopathic effect; assay type: cell-based; settings: MT-4 cells, MTT, 5 days after infection
[9] = 10 μM compound, 1 μM NCp7(11-55)

In the case of `Cn1sc(=N)nc1-c1ccccc1` [WDO-217, 2-methyl-3-phenyl-2H-[1,2,4]thiadiazol-5-ylideneamine], the “activity against replication of VSV” value (VSV) is reported as “inactive”, the “CCID50/ml UG270 subtype D” value (UG270 subtype D) is reported as 6446 CCID50/ml and the “viral genomic RNA content after treatment” value (HIV-1 virus particles) is reported as “clear decrease”. The CC50 [1] was 94 ± 15 µM, the “activity against replication of VZV” value (VZV) was “inactive” and the “IC50 HIV-capture procedure A” value [2] was “not able to prevent binding”. It also gave an EC50 (HIV-2 ROD [3]) of 2.3 ± 0.3 µM, an EC50 (NL4.3/WT) of 0.9 ± 0.05 µM and an EC50 (HIV-2 ROD [4]) of 15 ± 6.7 µM. For the same compound, the “activity against replication of CMV” value (CMV) was “inactive”, the “CCID50/ml BZ163 subtype F” value (BZ163 subtype F) was 2558 CCID50/ml and the “CCID50/ml HIV-2 ROD” value (HIV-2 ROD [5]; virus incubated 1 h 37°C with 0.2 μM) was 1.6 × 10^6 CCID50/ml. The “CCID50/ml HIV-2 ROD” value (HIV-2 ROD [5]; virus incubated 1 h 37°C with 1 μM) was 1 × 10^6 CCID50/ml, the “CCID50/ml HIV-2 ROD” value (HIV-2 ROD [5]; virus incubated 1 h 37°C with 5 μM) was 2.1 × 10^6 CCID50/ml and the “CCID50/ml HIV-2 ROD” value (HIV-2 ROD [5]; virus incubated 1 h 37°C with 25 μM) was 0 CCID50/ml. For the same compound, the “CCID50/ml HIV-2 ROD” value (HIV-2 ROD [5]; virus incubated 1 h 37°C with 625 μM) was 0 CCID50/ml, the “Infectivity of pre-incubated HIV-2 virus” value (HIV-2 ROD [5]; virus incubated at 26, 130 and 650 μM, 1 h 37°C) was “no longer able to infect cells” and the “activity against replication of HSV” value (HSV) was “inactive”. It also gave an EC50 (HIV-1 IIIB [6]) of 8.3 ± 1.8 µM, an EC50 (NL4.3/AMD3100R) of 1.7 ± 0.9 µM and an EC50 (SIV Mac251) of 5.3 ± 1.5 µM. The EC50 (SIV Mac251; Simian immunodeficiency virus, MT4, 120 h) was 5 ± 1 µM, the “time to complete zinc ejection” value (NCp7(11-55); [9]) was 35 min and the “time to ejection of 50% of the zinc” value (NCp7(11-55); [9]) was “less than 5 minutes”. For the same compound, the “zinc ejection (decrease of Trp37 fluorescence, same as 1 mM EDTA)” value (NCp7(11-55); 10-fold excess (10 μM), 1 h pre-incubation) was “efficiently ejects zinc”, the “CCID50/ml BCF-Dioum subtype G” value (BCF-Dioum subtype G) was 2558 CCID50/ml and the “accumulation of unprocessed Gag polyprotein in progeny virus” value [7] was “did not result in a drastic accumulation”. The EC50 (HIV-1 IIIB [8]; Human immunodeficiency virus 1, IIIB, MT4, 120 h) was 5 ± 3 µM and the EC50 (HIV-1 IIIB [8]) was 7.9 ± 3.3 µM.
